Measurements as given in PubChem BioAssay AID1963829 (Molecular Pharmacology Branch, DTP, NCI, 2024).

System: 935938-334-R-J1-PDC complex spheroid viability
Assay: Anticancer human tumor 935938-334-R-J1-PDC patient-derived small intestine adenocarcinoma cell line growth inhibition [POLQ]
Conditions: for IC50: curve of first compound; for viability, T/C: stronger effect = lower value
Method in brief: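 Complex spheroid viability model combining PDC tumour cells with endothelial (HUVEC) and MSC stromal cells. Novobiocin, ART-558 or RP6685 were tested singly and in combination with standard and investigational anticancer drugs. Each was titrated in half-log steps from near clinical Cmax, or from 10 microM where Cmax was unknown.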

[1] = second compound 0.0316 µM, first compound 0.0316 µM
[2] = second compound 0.0316 µM, first compound 0.1 µM
[3] = second compound 0.0316 µM, first compound 0.316 µM
[4] = second compound 0.0316 µM, first compound 1 µM
[5] = second compound 0.0316 µM, first compound 3.16 µM
[6] = second compound 0.0316 µM, first compound 10 µM
[7] = second compound 0.1 µM, first compound 0.0316 µM
[8] = second compound 0.1 µM, first compound 0.1 µM
[9] = second compound 0.1 µM, first compound 0.316 µM
[10] = second compound 0.1 µM, first compound 1 µM
[11] = second compound 0.1 µM, first compound 3.16 µM
[12] = second compound 0.1 µM, first compound 10 µM
[13] = second compound 0.316 µM, first compound 0.0316 µM
[14] = second compound 0.316 µM, first compound 0.1 µM
[15] = second compound 0.316 µM, first compound 0.316 µM
[16] = second compound 0.316 µM, first compound 1 µM
[17] = second compound 0.316 µM, first compound 3.16 µM
[18] = second compound 0.316 µM, first compound 10 µM
[19] = second compound 1 µM, first compound 0.0316 µM
[20] = second compound 1 µM, first compound 0.1 µM
[21] = second compound 1 µM, first compound 0.316 µM
[22] = second compound 1 µM, first compound 1 µM
[23] = second compound 1 µM, first compound 3.16 µM
[24] = second compound 1 µM, first compound 10 µM
[25] = second compound 3.16 µM, first compound 0.0316 µM
[26] = second compound 3.16 µM, first compound 0.1 µM
[27] = second compound 3.16 µM, first compound 0.316 µM
[28] = second compound 3.16 µM, first compound 1 µM
[29] = second compound 3.16 µM, first compound 3.16 µM
[30] = second compound 3.16 µM, first compound 10 µM
[31] = second compound 10 µM, first compound 0.0316 µM
[32] = second compound 10 µM, first compound 0.1 µM
[33] = second compound 10 µM, first compound 0.316 µM
[34] = second compound 10 µM, first compound 1 µM
[35] = second compound 10 µM, first compound 3.16 µM
[36] = second compound 10 µM, first compound 10 µM
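Also: spheroids exposed to drugs for seven days before viability read.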
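For viability, T/C in this document: 100% = DMSO vehicle control wells.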

## O=C(c1cc(Cc2n[nH]c(=O)c3ccccc23)ccc1F)N1CCN(C(=O)C2CC2)CC1 + Cc1cccc(N(C)C(=O)C2C(O)CCN2c2nc(C)cc(C(F)(F)F)c2C#N)c1
Second compound 0.0316 µM
  IC50: > 10 µM
Second compound 0.1 µM
  IC50: > 10 µM
Second compound 0.316 µM
  IC50: > 10 µM
Second compound 1 µM
  IC50: > 10 µM
Second compound 3.16 µM
  IC50: > 10 µM
Second compound 10 µM
  IC50: 9.21 µM
[1]
  viability, T/C: 72.1%
[2]
  viability, T/C: 93.2%
[3]
  viability, T/C: 59.6%
[4]
  viability, T/C: 96.7%
[5]
  viability, T/C: 74.1%
[6]
  viability, T/C: 65.8%
[7]
  viability, T/C: 76.3%
[8]
  viability, T/C: 81%
[9]
  viability, T/C: 73.3%
[10]
  viability, T/C: 97.3%
[11]
  viability, T/C: 71.1%
[12]
  viability, T/C: 63.7%
[13]
  viability, T/C: 92.8%
[14]
  viability, T/C: 108%
[15]
  viability, T/C: 89.8%
[16]
  viability, T/C: 89.6%
[17]
  viability, T/C: 69.4%
[18]
  viability, T/C: 58.1%
[19]
  viability, T/C: 89.7%
[20]
  viability, T/C: 86.8%
[21]
  viability, T/C: 135%
[22]
  viability, T/C: 85.1%
[23]
  viability, T/C: 78.1%
[24]
  viability, T/C: 69.9%
[25]
  viability, T/C: 88.5%
[26]
  viability, T/C: 99.2%
[27]
  viability, T/C: 97.5%
[28]
  viability, T/C: 85.2%
[29]
  viability, T/C: 68.8%
[30]
  viability, T/C: 54.5%
[31]
  viability, T/C: 95.3%
[32]
  viability, T/C: 78.7%
[33]
  viability, T/C: 87.2%
[34]
  viability, T/C: 88.2%
[35]
  viability, T/C: 82.3%
[36]
  viability, T/C: 47.5%

## O=C(c1cc(Cc2n[nH]c(=O)c3ccccc23)ccc1F)N1CCN(C(=O)C2CC2)CC1 + COC1C(OC(N)=O)C(O)C(Oc2ccc3c(O)c(NC(=O)c4ccc(O)c(CC=C(C)C)c4)c(=O)oc3c2C)OC1(C)C
Second compound 0.0316 µM
  IC50: > 10 µM
Second compound 0.1 µM
  IC50: > 10 µM
Second compound 0.316 µM
  IC50: > 10 µM
Second compound 1 µM
  IC50: > 10 µM
Second compound 3.16 µM
  IC50: > 10 µM
Second compound 10 µM
  IC50: > 10 µM
[1]
  viability, T/C: 83.4%
[2]
  viability, T/C: 89.7%
[3]
  viability, T/C: 87.5%
[4]
  viability, T/C: 110%
[5]
  viability, T/C: 79.9%
[6]
  viability, T/C: 64.6%
[7]
  viability, T/C: 101%
[8]
  viability, T/C: 99.1%
[9]
  viability, T/C: 95.9%
[10]
  viability, T/C: 90.8%
[11]
  viability, T/C: 80.8%
[12]
  viability, T/C: 58%
[13]
  viability, T/C: 78.4%
[14]
  viability, T/C: 98.6%
[15]
  viability, T/C: 90.3%
[16]
  viability, T/C: 77.4%
[17]
  viability, T/C: 88.7%
[18]
  viability, T/C: 85.2%
[19]
  viability, T/C: 76.7%
[20]
  viability, T/C: 84.6%
[21]
  viability, T/C: 102%
[22]
  viability, T/C: 87.5%
[23]
  viability, T/C: 94.5%
[24]
  viability, T/C: 79.4%
[25]
  viability, T/C: 119%
[26]
  viability, T/C: 85%
[27]
  viability, T/C: 107%
[28]
  viability, T/C: 75.9%
[29]
  viability, T/C: 64.6%
[30]
  viability, T/C: 84%
[31]
  viability, T/C: 94.9%
[32]
  viability, T/C: 102%
[33]
  viability, T/C: 80.3%
[34]
  viability, T/C: 83.8%
[35]
  viability, T/C: 81.7%
[36]
  viability, T/C: 69.5%

## C#Cc1c(F)ccc2cc(O)cc(-c3ncc4c(N5CC6CCC(C5)N6)nc(OCC56CCCN5CC(F)C6)nc4c3F)c12 (stereo not drawn) + COC1C(OC(N)=O)C(O)C(Oc2ccc3c(O)c(NC(=O)c4ccc(O)c(CC=C(C)C)c4)c(=O)oc3c2C)OC1(C)C
Second compound 0.0316 µM
  IC50: 0.848 µM
Second compound 0.1 µM
  IC50: 5.68 µM
Second compound 0.316 µM
  IC50: 1.84 µM
Second compound 1 µM
  IC50: 2.62 µM
Second compound 3.16 µM
  IC50: 6.23 µM
Second compound 10 µM
  IC50: 2.92 µM
[1]
  viability, T/C: 84.6%
[2]
  viability, T/C: 100%
[3]
  viability, T/C: 70.6%
[4]
  viability, T/C: 47.5%
[5]
  viability, T/C: 47.1%
[6]
  viability, T/C: 29.9%
[7]
  viability, T/C: 76.3%
[8]
  viability, T/C: 93.5%
[9]
  viability, T/C: 111%
[10]
  viability, T/C: 73.1%
[11]
  viability, T/C: 61.5%
[12]
  viability, T/C: 41%
[13]
  viability, T/C: 106%
[14]
  viability, T/C: 79.6%
[15]
  viability, T/C: 121%
[16]
  viability, T/C: 52%
[17]
  viability, T/C: 62.6%
[18]
  viability, T/C: 33.8%
[19]
  viability, T/C: 92.8%
[20]
  viability, T/C: 81.2%
[21]
  viability, T/C: 75.8%
[22]
  viability, T/C: 65%
[23]
  viability, T/C: 42%
[24]
  viability, T/C: 44.1%
[25]
  viability, T/C: 96.7%
[26]
  viability, T/C: 72%
[27]
  viability, T/C: 75.9%
[28]
  viability, T/C: 86.4%
[29]
  viability, T/C: 43.1%
[30]
  viability, T/C: 48.6%
[31]
  viability, T/C: 65.6%
[32]
  viability, T/C: 97.9%
[33]
  viability, T/C: 77.4%
[34]
  viability, T/C: 57.2%
[35]
  viability, T/C: 54.8%
[36]
  viability, T/C: 43.9%

## C=CC(=O)N1CCN(c2nc(=O)n(-c3c(C)ccnc3C(C)C)c3nc(-c4c(O)cccc4F)c(F)cc23)C(C)C1 (stereo not drawn) + Cc1cccc(N(C)C(=O)C2C(O)CCN2c2nc(C)cc(C(F)(F)F)c2C#N)c1
Second compound 0.0316 µM
  IC50: > 10 µM
Second compound 0.1 µM
  IC50: > 10 µM
Second compound 0.316 µM
  IC50: > 10 µM
Second compound 1 µM
  IC50: > 10 µM
Second compound 3.16 µM
  IC50: > 10 µM
Second compound 10 µM
  IC50: > 10 µM
[1]
  viability, T/C: 94.3%
[2]
  viability, T/C: 98.4%
[3]
  viability, T/C: 77%
[4]
  viability, T/C: 101%
[5]
  viability, T/C: 88.1%
[6]
  viability, T/C: 109%
[7]
  viability, T/C: 116%
[8]
  viability, T/C: 97.8%
[9]
  viability, T/C: 91.3%
[10]
  viability, T/C: 113%
[11]
  viability, T/C: 90.4%
[12]
  viability, T/C: 70.1%
[13]
  viability, T/C: 76.7%
[14]
  viability, T/C: 80.9%
[15]
  viability, T/C: 105%
[16]
  viability, T/C: 100%
[17]
  viability, T/C: 81.2%
[18]
  viability, T/C: 106%
[19]
  viability, T/C: 85.8%
[20]
  viability, T/C: 111%
[21]
  viability, T/C: 82.7%
[22]
  viability, T/C: 108%
[23]
  viability, T/C: 92.2%
[24]
  viability, T/C: 99.7%
[25]
  viability, T/C: 96%
[26]
  viability, T/C: 95%
[27]
  viability, T/C: 74.6%
[28]
  viability, T/C: 96.3%
[29]
  viability, T/C: 102%
[30]
  viability, T/C: 79.1%
[31]
  viability, T/C: 77.8%
[32]
  viability, T/C: 80.6%
[33]
  viability, T/C: 64.8%
[34]
  viability, T/C: 94.9%
[35]
  viability, T/C: 118%
[36]
  viability, T/C: 107%
